Reference: US20090005417A1, “Substituted Indazolyl Sulfonamide and 2,3-Dihydro-Indolyl Sulfonamide Compounds, their Preparation and Use in Medicaments” (LABORATORIOS DEL DR. ESTEVE S.A., priority 2004, published 2009)
pKi: −log10 of the molar value.

Each compound was assayed against T1, 5HT6-human recombinant receptor (Homo sapiens, UniProt P50406) (assay: Binding to serotonin receptor 5-HT6 ([3H]-LSD radioligand)). Conditions: membranes of HEK-293 cells expressing the receptor; [3H]-LSD 2.7 nM; 60 min at 37° C.
T1 construct: purchased Receptor Biology; host or cells: HEK-293 cell membranes
T1 sequence (P50406 whole entry): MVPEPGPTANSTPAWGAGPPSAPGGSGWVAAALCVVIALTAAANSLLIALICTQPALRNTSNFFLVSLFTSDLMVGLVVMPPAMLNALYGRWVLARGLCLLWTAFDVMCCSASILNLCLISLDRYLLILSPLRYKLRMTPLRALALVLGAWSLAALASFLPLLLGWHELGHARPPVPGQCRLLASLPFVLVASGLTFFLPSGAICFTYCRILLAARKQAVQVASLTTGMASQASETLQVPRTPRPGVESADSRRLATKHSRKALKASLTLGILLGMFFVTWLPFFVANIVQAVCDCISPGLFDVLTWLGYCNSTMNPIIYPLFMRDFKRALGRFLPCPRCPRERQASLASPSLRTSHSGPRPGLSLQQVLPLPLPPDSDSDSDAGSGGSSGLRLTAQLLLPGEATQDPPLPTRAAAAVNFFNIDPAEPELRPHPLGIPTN
Description: Cell membranes of HEK-293 cells expressing the 5HT6-human recombinant receptor were supplied by Receptor Biology. In said membranes the receptor concentration is 2.18 pmol/mg protein and the protein concentration is 9.17 mg/ml. The experimental protocol follows the method of B. L. Roth et al. [B. L. Roth, S. C. Craigo, M. S. Choudhary, A. Uluer, F. J. Monsma, Y. Shen, H. Y. Meltzer, D. R. Sibley: Binding of Typical and Atypical Antipsychotic Agents to 5-Hydroxytryptamine-6 and Hydroxytryptamine-7 Receptors. The Journal of Pharmacology and Experimental Therapeutics, 1994, 268, 1403] with the following slight changes. The respective part of the literature description is hereby incorporated by reference and forms part of the disclosure.
The commercial membrane is diluted (1:40 dilution) with the binding buffer: 50 mM Tris-HCl, 10 mM MgCl2, 0.5 mM EDTA (pH 7.4). The radioligand used is [^3H]-LSD at a concentration of 2.7 nM with a final volume of 200 μl. Incubation is initiated by adding 100 μl of membrane suspension, (≈22.9 μg membrane protein), and is prolonged for 60 minutes at a temperature of 37° C. The incubation is ended by fast filtration in a Brandel Cell Harvester through fiber glass filters made by Schleicher & Schuell GF 3362 pretreated with a solution of polyethylenimine at 0.5%. The filters are washed three times with three milliliters of buffer Tris-HCl 50 mM pH 7.4. The filters are transferred to flasks and 5 ml of Ecoscint H liquid scintillation cocktail are added to each flask. The flasks are allowed to reach equilibrium for several hours before counting with a Wallac Winspectral 1414 scintillation counter. Non-specific binding is determined in the presence of 100 μM of serotonin. Tests were made in triplicate. The inhibition constants (Ki, nM) were calculated by non-linear regression analysis using the program EBDA/LIGAND described in Munson and Rodbard, Analytical Biochemistry, 1980, 107, 220, the respective part of which is hereby incorporated by reference and forms part of the disclosure.
The binding of the substituted indazolyl sulfonamide or 2,3-dihydro-indolyl sulfonamide compounds to the 5-HT6 receptor was determined as described above.

Row | Structure (SMILES) | pKi
1 | Cc1c(S(=O)(=O)Nc2ccc3cnn(CCN(C)C)c3c2)sc2ccc(Cl)cc12 [Example 2, 5-chloro-N-(1-(2-(dimethylamino)ethyl)-1H-indazol-6-yl)-3-methylbenzo[b]thiophene-2-sulfonamide] | 7.79
2 | CN(C)CCn1ncc2ccc(NS(=O)(=O)c3ccc4ccccc4c3)cc21 [Example 1, N-(1-(2-(dimethylamino)ethyl)-1H-indazol-6-yl)napthalene-2-sulfonamide] | 7.14
3 | CN(C)CCN1CCc2ccc(NS(=O)(=O)c3c(Cl)nc4sccn34)cc21 [Example 9] | 7.80
4 | Cc1c(S(=O)(=O)Nc2ccc3[nH]nc(C4CCN(C)CC4)c3c2)sc2ccc(Cl)cc12 [Example 4, 5-chloro-3-methyl-benzo[b]thiophene-2-sulfonic acid [3-(1-methyl-piperidin-4-yl)-1H-indazol-5-yl]-amide] | 6.92
